Assay results: paper PMC11381475, “Biopharmaceutical profiling of anti-infective sanggenons from Morus alba root bark for inhalation administration” (International Journal of Pharmaceutics: X, 2024)
Converted amounts (≈) assume the structure as drawn. Read-outs that look alike come from different tables or passages of the source.

Tests used:
[1] = UV-metric pKa measurement (SiriusT3); assay type: physicochemical; details: experimental, SiriusT3, 25 °C, mean ± S.D.
Procedure: Experimental pKa (−log10 of the acid dissociation equilibrium constant) values of SGC and SGD were evaluated using the UV-metric pKa measurement method of the SiriusT3 automated titrator instrument and the corresponding software SiriusT3Control and SiriusT3Refine (Pion Inc., Billerica, USA). The SiriusT3 apparatus uses a deuterium lamp to determine the UV/Vis absorbance spectrum of the test solutions at each pH point. The standard aqueous UV-metric pKa measurement protocol was conducted according to manufacturer instructions. […] This was mixed with 25 μL phosphate buffer (14.7 mM K2HPO4 and 0.15 M KCl in MilliQ water) and diluted with 1.5 mL ionic strength-adjusted water (ISA water ≡ 0.15 M KCl in MilliQ water). The subsequent acid/base titration and measurement of UV absorbance was automatically performed by the SiriusT3 at 25.0 ± 0.5 °C. […] Turbidity was monitored by a turbidity sensor to ensure the absence of precipitation of the test compounds during the experiment, since accurate pKa measurements are limited to fully dissolved substances. In case turbidity occurred, individual titrations were not used for further analysis, resulting in a total of 11 analysable titrations across the 5 replicate samples for both SGC and SGD.

SARS-CoV-2 = system: SARS-CoV-2; set-up: method as in Wasilewicz et al., 2023; details: reported to be based on inhibition of the viral main protease, ref Wasilewicz et al., 2023; read-out: anti-SARS-CoV-2 activity IC50; cited from earlier work
Calu-3 cells = assay: Calu-3 cell uptake, FIA-TOFMS; assay type: in vitro ADME, human; details: 50 µg/mL; for Concentration [pg/µL] 1 in cell extract / Normalized concentration [pg/cell] 1: replicate 1; for Concentration [pg/µL] 2 in cell extract / Normalized concentration [pg/cell] 2: replicate 2; for Concentration [pg/µL] 3 in cell extract / Normalized concentration [pg/cell] 3: replicate 3
Procedure: At 4, 12, and 24 h after addition, cell extracts were generated in triplicates. To that end, the medium was aspirated from the respective wells, and cells were washed with pre-warmed ammonium carbonate solution (75 mM, pH 7.4, 37 °C). Immediately after removal of the wash solvent, 300 μL cold extraction solvent (40:40:20 acetonitrile:methanol:water, −20 °C) was added per well to lyse cells in situ and stop the enzymatic activity. The bottom of each well was subsequently scraped and the cell extracts were transferred to 96-well storage plates and stored at −80 °C until analysis. […] Quantification of SGC and SGD was performed using flow-injection time-of-flight mass spectrometry (FIA-TOFMS) in negative ion mode as described previously ([Fuhrer et al., 2011]). SGC and SGD signals were identified by matching accurate masses (for both [M-H]- at 707.2127 m/z). To account for possible influences of the complex matrix in the cell extract samples, a matrix-matched series of calibration samples were prepared, in which increasing concentrations of SGC were spiked into extracts of cells that had not previously been treated with either SGC or SGD. The calibration samples were injected alongside the cell extract samples and used to establish a calibration function using linear regression. The ion intensities measured were converted into SGC and SGD concentrations and normalized by the cell number in each sample, which was determined at each time point in separate cell cultures using trypan blue staining and cell counting in a Thermo Fisher Countess II Automated cell counter after trypsin-mediated cell detachment. This procedure eventually yielded estimates of SGC and SGD contents in pg/cell.

[2] = Calu-3 cell viability, MTT assay; details: human
Calu-3 monolayer [3] = system: Calu-3 monolayer
[4] = pH-dependent thermodynamic solubility, miniaturized shake-flask method, UPLC-PDA; details: for solubility thermodynamic at 24 h: 24 °C, thermodynamic from solid
[5] = potentiometric logP, water-octanol (SiriusT3); assay type: physicochemical; details: octanol/water, experimental, mean ± S.D., n = 3, read-out: logP
Procedure: LogP (partition coefficient) evaluation was performed via SiriusT3. The potentiometric logP measurement relies on assessing the partition profile of the test substance within a two-phase water-octanol solvent system. Changes in the relative volume ratio of octanol to water lead to shifts in the apparent pKa, resulting from the partitioning between non-ionised and ionised forms. LogP values were then estimated based on these assessments.

Calu-3 monolayer [6] = system: Calu-3 monolayer; remark: listed apart in the source

CC(C)=CC[C@]12Oc3cc(O)c([C@H]4C=C(C)C[C@H](c5ccc(O)cc5O)[C@H]4C(=O)c4ccc(O)cc4O)c(O)c3C(=O)[C@@]1(O)Oc1cc(O)ccc12 [SGC, sanggenon C]
pKa ([1]; read-out: pKa 1): 2.64 ± 0.69
pKa ([1]; read-out: pKa 2): 5.2 ± 0.8
pKa ([1]; read-out: pKa 3): 6.74 ± 0.14
pKa ([1]; read-out: pKa 4): 7.97 ± 0.06
pKa ([1]; read-out: pKa 5): 9 ± 0.04
pKa ([1]; read-out: pKa 6): 9.84 ± 0.05
pKa ([1]; read-out: pKa 7): 10.7 ± 0.02
pKa ([1]; read-out: pKa 8): 12.05 ± 0.07
IC50 (SARS-CoV-2): 7.2 µM
intracellular content, Mean [pg/cell] (Calu-3 cells; 4 h): 2.0 ± 0.1 pg/cell
Concentration [pg/µL] 1 in cell extract (Calu-3 cells; 4 h): 4284 pg/µL
Normalized concentration [pg/cell] 1 (Calu-3 cells; 4 h): 2.09 pg/cell
Concentration [pg/µL] 2 in cell extract (Calu-3 cells; 4 h): 3851 pg/µL
Normalized concentration [pg/cell] 2 (Calu-3 cells; 4 h): 1.88 pg/cell
Concentration [pg/µL] 3 in cell extract (Calu-3 cells; 4 h): 3902 pg/µL
Normalized concentration [pg/cell] 3 (Calu-3 cells; 4 h): 1.90 pg/cell
intracellular content, Mean [pg/cell] (Calu-3 cells; 4 h, listed as Sanggenon C): 1.96 pg/cell
intracellular content, Mean [pg/cell] (Calu-3 cells; 12 h): 5.54 pg/cell
Concentration [pg/µL] 1 in cell extract (Calu-3 cells; 12 h): 13620 pg/µL
Normalized concentration [pg/cell] 1 (Calu-3 cells; 12 h): 5.77 pg/cell
Concentration [pg/µL] 2 in cell extract (Calu-3 cells; 12 h): 13397 pg/µL
Normalized concentration [pg/cell] 2 (Calu-3 cells; 12 h): 5.67 pg/cell
Concentration [pg/µL] 3 in cell extract (Calu-3 cells; 12 h): 12248 pg/µL
Normalized concentration [pg/cell] 3 (Calu-3 cells; 12 h): 5.19 pg/cell
intracellular content, Mean [pg/cell] (Calu-3 cells; 24 h): 8.1 ± 0.3 pg/cell
Concentration [pg/µL] 1 in cell extract (Calu-3 cells; 24 h): 17926 pg/µL
Normalized concentration [pg/cell] 1 (Calu-3 cells; 24 h): 8.34 pg/cell
Concentration [pg/µL] 2 in cell extract (Calu-3 cells; 24 h): 16862 pg/µL
Normalized concentration [pg/cell] 2 (Calu-3 cells; 24 h): 7.85 pg/cell
Concentration [pg/µL] 3 in cell extract (Calu-3 cells; 24 h): 17411 pg/µL
Normalized concentration [pg/cell] 3 (Calu-3 cells; 24 h): 8.11 pg/cell
intracellular content, Mean [pg/cell] (Calu-3 cells; 24 h, listed as Sanggenon C): 8.10 pg/cell
CC50 at 24 h [2]: 47.8 µg/mL (≈ 67.4 µM)
change in TEER during permeability study, B-A direction (Calu-3 monolayer [3]): a decrease in TEER values was also observed
solubility thermodynamic at 24 h ([4]; HCl buffer, pH 1.2, simulated gastric fluid): 4.47 µg/mL (≈ 6.31 µM)
solubility thermodynamic at 24 h ([4]; acetate buffer, pH 4.5, aqueous buffer): 8.53 µg/mL (≈ 12 µM)
pH 1.2 solubility ([4]; compound within extract MA21, pH 1.2): < LOQ
pH 4.5 solubility ([4]; compound within extract MA21, pH 4.5): < LOQ
pH 6.8 solubility ([4]; compound within extract MA21, pH 6.8): 4.05 µg/mL
pH 7.4 solubility ([4]; compound within extract MA21, pH 7.4): 3.24 µg/mL
pH 1.2 solubility ([4]; compound within extract MA60, pH 1.2): 6.88 µg/mL
pH 4.5 solubility ([4]; compound within extract MA60, pH 4.5): < LOQ
pH 6.8 solubility ([4]; compound within extract MA60, pH 6.8): 12.7 µg/mL
pH 7.4 solubility ([4]; compound within extract MA60, pH 7.4): 13.6 µg/mL
solubility thermodynamic at 24 h ([4]; phosphate buffer, pH 6.8, aqueous buffer): 18.5 µg/mL (≈ 26.1 µM)
solubility thermodynamic at 24 h ([4]; phosphate buffer, pH 7.4, aqueous buffer): 47.1 µg/mL (≈ 66.5 µM)
logP [5]: 3 to 3.5
evidence for permeability of SGC or SGD (Calu-3 monolayer [6]): Neither by applying the isolated compounds nor the extracts MA60 and MA21, any evidence for the permeability of SGC or SGD was detectable
permeability across intact Calu-3 monolayers (Calu-3 monolayer [6]): no measurable permeability
